Measured values published in patent US9708314B2, “Heterocyclic amide compound” (NISSAN CHEMICAL INDUSTRIES, LTD., priority 2013, dated 2017).
Several values for one entry are separate records, joined by “and”; a condition that tells them apart may be missing. Equal values may be shown once.

Tests used:
Assay type in all cases: in vivo
[1] = tested on: Echinochloa oryzacola Vasing.; experiment: Test Example 1: herbicidal activity, application before weed generation in submerged conditions; details: Seventeenth Table; for A: Echinochloa oryzicola Vasing. (herbicidal effect grade): Application herbicide amount 320 g/ha
Summary of the method: (§1)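 Alluvial soil in Wagner pots flooded to 4 cm water depth; weed seeds sown and 2.5 leaf stage rice seedlings transplanted. Emulsion diluted in water applied to water surface on sowing day at stated g/ha. Greenhouse 25° C. to 30° C.; effects scored 0–5 by herbicidal ratio after three weeks.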

[2] = tested on: Monochoria vaginalis; experiment: as above; details: Seventeenth Table; for C: Monochoria vaginalis (herbicidal effect grade): Application herbicide amount 320 g/ha
Summary of the method: as §1

[3] = tested on: Scirpus juncoides; experiment: as above; details: Seventeenth Table; for B: Scirpus juncoides (herbicidal effect grade): Application herbicide amount 320 g/ha
Summary of the method: as §1

[4] = tested on: transplanted Oryza sativa; experiment: Test Example 1: effect on crop, application before weed generation in submerged conditions; details: Seventeenth Table; for a: transplanted Oryza sativa (effect on crop grade): Application herbicide amount 320 g/ha
Summary of the method: as §1

[5] = tested on: Echinochloa oryzacola Vasing.; experiment: Test Example 2: herbicidal activity, application during weed generation in submerged conditions; details: Eighteenth Table; application herbicide amount 320 g/ha
Summary of the method: (§2)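 Alluvial soil in Wagner pots flooded to 4 cm water depth; seeds sown mixed, grown in greenhouse at 25–30 °C. At one- to two-leaf stage, emulsion diluted with water to the set rate (g/ha) was applied to the water surface. Effect scored 0–5 by herbicidal ratio three weeks later.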

[6] = tested on: Monochoria vaginalis; experiment: as above; details: Eighteenth Table; application herbicide amount 320 g/ha
Summary of the method: as §2

[7] = tested on: Scirpus juncoides; experiment: as above; details: Eighteenth Table; application herbicide amount 320 g/ha
Summary of the method: as §2

[8] = tested on: directly sowed Oryza sativa; experiment: Test Example 3: effect on crop by application to foliage (Wagner pot, water depth 0.1-0.5 cm); details: Nineteenth Table; application to foliage; application herbicide amount 320 g/ha
Summary of the method: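 Three weeks after spraying, each species was graded 0–5 for herbicidal ratio, 5 being 90% or more. Application: water-diluted emulsifiable concentrate at a fixed g/ha to foliage of 14-day-old greenhouse (25–30 °C) plants in alluvial soil.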

[9] = application herbicide amount 320 g/ha

Cc1nnc2c(C(=O)Nc3nnnn3C)ccc(C(F)(F)F)n12 [2-002]
A: Echinochloa oryzicola Vasing. (herbicidal effect grade) [1]: 2 (Herbicidal ratio of 20% or more and less than 40%)
C: Monochoria vaginalis (herbicidal effect grade) [2]: 3 (Herbicidal ratio of 40% or more and less than 70%)
B: Scirpus juncoides (herbicidal effect grade) [3]: 3 (Herbicidal ratio of 40% or more and less than 70%)
a: transplanted Oryza sativa (effect on crop grade) [4]: 0 (Herbicidal ratio of 5% or less (almost no effect))
A (Echinochloa oryzicola Vasing.) herbicidal ratio grade [5]: 2 (Herbicidal ratio of 20% or more and less than 40%)
C (Monochoria vaginalis) herbicidal ratio grade [6]: 2 (Herbicidal ratio of 20% or more and less than 40%)
B (Scirpus juncoides) herbicidal ratio grade [7]: 1 (Herbicidal ratio of 5% or more and less than 20%)
b (effect on crop grade) [8]: 2 (Herbicidal ratio of 20% or more and less than 40%)

CCOC(=O)Cc1nnc2c(C(=O)Nc3nnnn3C)ccc(C(F)(F)F)n12 [2-040]
A: Echinochloa oryzicola Vasing. (herbicidal effect grade) [1]: 4 (Herbicidal ratio of 70% or more and less than 90%)
C: Monochoria vaginalis (herbicidal effect grade) [2]: 4 (Herbicidal ratio of 70% or more and less than 90%)
B: Scirpus juncoides (herbicidal effect grade) [3]: 4 (Herbicidal ratio of 70% or more and less than 90%)
a: transplanted Oryza sativa (effect on crop grade) [4]: 4 (Herbicidal ratio of 70% or more and less than 90%)
A (Echinochloa oryzicola Vasing.) herbicidal ratio grade [5]: 4 (Herbicidal ratio of 70% or more and less than 90%)
C (Monochoria vaginalis) herbicidal ratio grade [6]: 4 (Herbicidal ratio of 70% or more and less than 90%)
B (Scirpus juncoides) herbicidal ratio grade [7]: 3 (Herbicidal ratio of 40% or more and less than 70%)
b (effect on crop grade) [8]: 4 (Herbicidal ratio of 70% or more and less than 90%)

Cn1nnnc1NC(=O)c1ccc(C(F)(F)F)n2c(-c3ccc(F)cc3)nnc12 [2-043]
A: Echinochloa oryzicola Vasing. (herbicidal effect grade) [1]: 5 (Herbicidal ratio of 90% or more (almost completely withered))
C: Monochoria vaginalis (herbicidal effect grade) [2]: 5 (Herbicidal ratio of 90% or more (almost completely withered))
B: Scirpus juncoides (herbicidal effect grade) [3]: 5 (Herbicidal ratio of 90% or more (almost completely withered))
a: transplanted Oryza sativa (effect on crop grade) [4]: 4 (Herbicidal ratio of 70% or more and less than 90%)
A (Echinochloa oryzicola Vasing.) herbicidal ratio grade [5]: 5 (Herbicidal ratio of 90% or more (almost completely withered))
C (Monochoria vaginalis) herbicidal ratio grade [6]: 4 (Herbicidal ratio of 70% or more and less than 90%)
B (Scirpus juncoides) herbicidal ratio grade [7]: 4 (Herbicidal ratio of 70% or more and less than 90%)
b (effect on crop grade) [8]: 5 (Herbicidal ratio of 90% or more (almost completely withered))

Cn1nnnc1NC(=O)c1ccc(C(F)(F)F)n2c(SCC3CC3)nnc12 [2-084]
A: Echinochloa oryzicola Vasing. (herbicidal effect grade) [1]: 5 (Herbicidal ratio of 90% or more (almost completely withered))
C: Monochoria vaginalis (herbicidal effect grade) [2]: 4 (Herbicidal ratio of 70% or more and less than 90%)
B: Scirpus juncoides (herbicidal effect grade) [3]: 5 (Herbicidal ratio of 90% or more (almost completely withered))
a: transplanted Oryza sativa (effect on crop grade) [4]: 4 (Herbicidal ratio of 70% or more and less than 90%)
A (Echinochloa oryzicola Vasing.) herbicidal ratio grade [5]: 4 (Herbicidal ratio of 70% or more and less than 90%)
C (Monochoria vaginalis) herbicidal ratio grade [6]: 3 (Herbicidal ratio of 40% or more and less than 70%)
B (Scirpus juncoides) herbicidal ratio grade [7]: 4 (Herbicidal ratio of 70% or more and less than 90%)
b (effect on crop grade) [8]: 5 (Herbicidal ratio of 90% or more (almost completely withered))

COc1ccc(N(C)c2nnc3c(C(=O)Nc4nnnn4C)ccc(C(F)(F)F)n23)cc1 [2-099]
A (Echinochloa oryzicola Vasing.) herbicidal ratio grade [1, 9]: 5 (Herbicidal ratio of 90% or more (almost completely withered))
C (Monochoria vaginalis) herbicidal ratio grade [2, 9]: 5 (Herbicidal ratio of 90% or more (almost completely withered))
B (Scirpus juncoides) herbicidal ratio grade [3, 9]: 4 (Herbicidal ratio of 70% or more and less than 90%)
a (transplanted Oryza sativa) effect on crop grade [4, 9]: 4 (Herbicidal ratio of 70% or more and less than 90%)
A (Echinochloa oryzicola Vasing.) herbicidal ratio grade [5]: 5 (Herbicidal ratio of 90% or more (almost completely withered))
C (Monochoria vaginalis) herbicidal ratio grade [6]: 4 (Herbicidal ratio of 70% or more and less than 90%)
B (Scirpus juncoides) herbicidal ratio grade [7]: 5 (Herbicidal ratio of 90% or more (almost completely withered))
b (effect on crop grade) [8]: 4 (Herbicidal ratio of 70% or more and less than 90%)

CC(C)N(C)c1nnc2c(C(=O)Nc3nnnn3C)ccc(C(F)(F)F)n12 [2-082]
A: Echinochloa oryzicola Vasing. (herbicidal effect grade) [1]: 5 (Herbicidal ratio of 90% or more (almost completely withered))
C: Monochoria vaginalis (herbicidal effect grade) [2]: 5 (Herbicidal ratio of 90% or more (almost completely withered))
B: Scirpus juncoides (herbicidal effect grade) [3]: 5 (Herbicidal ratio of 90% or more (almost completely withered))
a: transplanted Oryza sativa (effect on crop grade) [4]: 5 (Herbicidal ratio of 90% or more (almost completely withered))
A (Echinochloa oryzicola Vasing.) herbicidal ratio grade [5]: 5 (Herbicidal ratio of 90% or more (almost completely withered))
C (Monochoria vaginalis) herbicidal ratio grade [6]: 3 (Herbicidal ratio of 40% or more and less than 70%)
B (Scirpus juncoides) herbicidal ratio grade [7]: 4 (Herbicidal ratio of 70% or more and less than 90%)
b (effect on crop grade) [8]: 5 (Herbicidal ratio of 90% or more (almost completely withered))

CN(C)c1nnc2c(C(=O)Nc3nnnn3C)ccc(C(F)(F)F)n12 [2-051]
A: Echinochloa oryzicola Vasing. (herbicidal effect grade) [1]: 5 (Herbicidal ratio of 90% or more (almost completely withered))
C: Monochoria vaginalis (herbicidal effect grade) [2]: 5 (Herbicidal ratio of 90% or more (almost completely withered))
B: Scirpus juncoides (herbicidal effect grade) [3]: 5 (Herbicidal ratio of 90% or more (almost completely withered))
a: transplanted Oryza sativa (effect on crop grade) [4]: 4 (Herbicidal ratio of 70% or more and less than 90%)
A (Echinochloa oryzicola Vasing.) herbicidal ratio grade [5]: 5 (Herbicidal ratio of 90% or more (almost completely withered))
C (Monochoria vaginalis) herbicidal ratio grade [6]: 5 (Herbicidal ratio of 90% or more (almost completely withered))
B (Scirpus juncoides) herbicidal ratio grade [7]: 5 (Herbicidal ratio of 90% or more (almost completely withered))
b (effect on crop grade) [8]: 4 (Herbicidal ratio of 70% or more and less than 90%)

Cn1nnnc1NC(=O)c1ccc(C(F)(F)F)n2c(CC[S+](C)[O-])nnc12 (centres unmarked) [2-058]
A: Echinochloa oryzicola Vasing. (herbicidal effect grade) [1]: 4 (Herbicidal ratio of 70% or more and less than 90%)
C: Monochoria vaginalis (herbicidal effect grade) [2]: 5 (Herbicidal ratio of 90% or more (almost completely withered))
B: Scirpus juncoides (herbicidal effect grade) [3]: 4 (Herbicidal ratio of 70% or more and less than 90%)
a: transplanted Oryza sativa (effect on crop grade) [4]: 5 (Herbicidal ratio of 90% or more (almost completely withered))
A (Echinochloa oryzicola Vasing.) herbicidal ratio grade [5]: 4 (Herbicidal ratio of 70% or more and less than 90%)
C (Monochoria vaginalis) herbicidal ratio grade [6]: 4 (Herbicidal ratio of 70% or more and less than 90%)
B (Scirpus juncoides) herbicidal ratio grade [7]: 4 (Herbicidal ratio of 70% or more and less than 90%)
b (effect on crop grade) [8]: 5 (Herbicidal ratio of 90% or more (almost completely withered))

Cn1nnnc1NC(=O)c1ccc(C(F)(F)F)n2c(-c3ccc(Cl)nc3)nnc12 [2-060]
A: Echinochloa oryzicola Vasing. (herbicidal effect grade) [1]: 5 (Herbicidal ratio of 90% or more (almost completely withered))
C: Monochoria vaginalis (herbicidal effect grade) [2]: 5 (Herbicidal ratio of 90% or more (almost completely withered))
B: Scirpus juncoides (herbicidal effect grade) [3]: 5 (Herbicidal ratio of 90% or more (almost completely withered))
a: transplanted Oryza sativa (effect on crop grade) [4]: 5 (Herbicidal ratio of 90% or more (almost completely withered))
A (Echinochloa oryzicola Vasing.) herbicidal ratio grade [5]: 5 (Herbicidal ratio of 90% or more (almost completely withered))
C (Monochoria vaginalis) herbicidal ratio grade [6]: 5 (Herbicidal ratio of 90% or more (almost completely withered))
B (Scirpus juncoides) herbicidal ratio grade [7]: 4 (Herbicidal ratio of 70% or more and less than 90%) and 3 (Herbicidal ratio of 40% or more and less than 70%)
b (effect on crop grade) [8]: 5 (Herbicidal ratio of 90% or more (almost completely withered))

CC(c1nnc2c(C(=O)Nc3nnnn3C)ccc(C(F)(F)F)n12)[S+](C)[O-] (centres unmarked) [2-053]
A: Echinochloa oryzicola Vasing. (herbicidal effect grade) [1]: 5 (Herbicidal ratio of 90% or more (almost completely withered))
C: Monochoria vaginalis (herbicidal effect grade) [2]: 4 (Herbicidal ratio of 70% or more and less than 90%)
B: Scirpus juncoides (herbicidal effect grade) [3]: 5 (Herbicidal ratio of 90% or more (almost completely withered))
a: transplanted Oryza sativa (effect on crop grade) [4]: 5 (Herbicidal ratio of 90% or more (almost completely withered))
A (Echinochloa oryzicola Vasing.) herbicidal ratio grade [5]: 5 (Herbicidal ratio of 90% or more (almost completely withered))
C (Monochoria vaginalis) herbicidal ratio grade [6]: 4 (Herbicidal ratio of 70% or more and less than 90%)
B (Scirpus juncoides) herbicidal ratio grade [7]: 4 (Herbicidal ratio of 70% or more and less than 90%)
b (effect on crop grade) [8]: 5 (Herbicidal ratio of 90% or more (almost completely withered))
